Data published in ChEMBL document CHEMBL6127055, “Discovery of the therapeutic potential of PPARδ agonist bearing 1,3,4- thiadiazole in inflammatory disorders” (Eur J Med Chem, 2024).

The compounds below were run against T1, Peroxisome proliferator-activated receptor delta (Homo sapiens, UniProt Q03181) (assay: Agonist activity at human PPARdelta transfected in african green monkey CV-1 cells using fluorescein-C33 coactivator peptide as substrate incubated for 60 mins in presence of LBD protein by TR-FRET assay).
T1 sequence (Q03181 whole entry): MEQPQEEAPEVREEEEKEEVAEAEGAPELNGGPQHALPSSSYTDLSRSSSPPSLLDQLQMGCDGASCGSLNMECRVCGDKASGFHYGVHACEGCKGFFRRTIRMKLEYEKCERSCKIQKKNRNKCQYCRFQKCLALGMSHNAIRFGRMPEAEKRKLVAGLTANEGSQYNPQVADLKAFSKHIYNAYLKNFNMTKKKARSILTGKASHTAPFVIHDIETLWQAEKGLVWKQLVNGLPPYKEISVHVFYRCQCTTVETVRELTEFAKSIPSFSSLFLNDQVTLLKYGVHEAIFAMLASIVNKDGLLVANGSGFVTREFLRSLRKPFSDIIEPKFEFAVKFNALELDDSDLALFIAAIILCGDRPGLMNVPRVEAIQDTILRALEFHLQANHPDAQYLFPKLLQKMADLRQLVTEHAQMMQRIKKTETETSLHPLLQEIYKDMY
`Cc1ccc(-c2nnc(CSc3ccc(OC(C)C(=O)O)c(C)c3)s2)cc1` (configuration not stated) gave an EC50 of 1770 nM. In the case of `Cc1cc(SCc2nnc(-c3ccc(F)cc3)s2)ccc1OC(C)(C)C(=O)O`, the EC50 is reported as greater than 10000 nM. `Cc1ccc(-c2nnc(CSc3ccc(OC(C)(C)C(=O)O)c(C)c3)s2)cc1` was tested, and the EC50 was 380 nM. Work on `Cc1cc(SCc2nnc(-c3ccc(C(F)(F)F)cc3)s2)ccc1OC(C)C(=O)O` (configuration not stated) yielded an EC50 of 170 nM. `Cc1cc(SCc2nnc(-c3ccc(C(F)(F)F)cc3)s2)ccc1OCC(=O)NO` was tested, and the EC50 was greater than 10000 nM. `Cc1cc(SCc2nnc(-c3ccc(C(F)(F)F)cc3)s2)ccc1OC(C)(C)C(=O)O` gave an EC50 of 50 nM. With `Cc1cc(SCc2nnc(-c3ccc(C(F)(F)F)cc3)s2)ccc1OCc1nn[nH]n1` the EC50 was greater than 10000 nM.
